Test results taken from patent US9650395B2, “Antibacterial compounds and methods for use” (PTC Therapeutics, Inc., priority 2011, dated 2017).
In brackets after ≈: the same amount, converted by molar mass. Like-named read-outs stand apart in the source and are kept apart here.

Experiments:
[1] = system: resistant K. pneumoniae MXX1232 (MDR clinical isolate); test: Antibacterial activity, MIC, resistant K. pneumoniae MXX1232; type: cell-based, Klebsiella pneumoniae; conditions: Klebsiella pneumoniae, read-out: MIC MMX1232
[2] = system: control Gram-negative E. coli 25922 strain; test: Antibacterial activity, microbroth dilution MIC, E. coli 25922; type: cell-based, Escherichia coli; conditions: Escherichia coli; E. coli 25922, microbroth dilution; read-out: MIC, 25922
[3] = system: E. coli ELZ4251 (MDR clinical isolate); test: Antibacterial activity, MIC, MDR E. coli ELZ4251; type: cell-based, Escherichia coli; conditions: Escherichia coli, E. coli ELZ4251, MDR clinical isolate; read-out: MIC ELZ4251
[4] = system: resistant A. baumannii MXX2240 (MDR clinical isolate); test: Antibacterial activity, MIC, resistant A. baumannii MXX2240; type: cell-based, Acinetobacter baumannii; conditions: Acinetobacter baumannii, read-out: MIC MMX2240
[5] = system: Pseudomonas aeruginosa (P. aeruginosa) 27853; test: Antibacterial activity, MIC, P. aeruginosa 27853; type: cell-based; conditions: Pseudomonas aeruginosa, P. aeruginosa 27853; read-out: MIC 27853
From the text: (§1) The antibacterial activity from a microbroth dilution method may be presented as the minimum inhibitory concentration (MIC in […]). The MIC value is the lowest concentration of a drug which prevents macroscopically visible bacterial growth under test conditions.
Antibacterial activity of test compounds against the Gram-negative bacterium Pseudomonas aeruginosa (P. aeruginosa) 27853 is shown in Table 5.

[6] = system: Gram-positive Staphylococcus aureus (S. aureus) 29213; test: Antibacterial activity, microbroth dilution MIC, S. aureus 29213; type: cell-based; conditions: Staphylococcus aureus; S. aureus 29213, microbroth dilution; read-out: MIC, 29213
[7] = system: Klebsiella pneumoniae (K. pneumoniae) 35657; test: Antibacterial activity, MIC, K. pneumoniae 35657; type: cell-based; conditions: Klebsiella pneumoniae
[8] = system: super sensitive Gram-negative Escherichia coli (E. coli) BAS849; test: Antibacterial activity, microbroth dilution MIC, E. coli BAS849; type: cell-based; conditions: Escherichia coli; E. coli BAS849, microbroth dilution; read-out: MIC, BAS849
[9] = system: Acinetobacter baumannii (A. baumannii) BAA747; test: Antibacterial activity, MIC, A. baumannii BAA747; type: cell-based; conditions: Acinetobacter baumannii; A. baumannii BAA747; read-out: MIC BAA747
[10] = system: Moraxella catarrhalis (M. catarrhalis) 25238; test: Antibacterial activity, MIC, M. catarrhalis 25238; type: cell-based; conditions: Moraxella catarrhalis, M. catarrhalis 25238; read-out: MIC 25238
[11] = system: E. coli ELZ4000 (MDR clinical isolate); test: Antibacterial activity, MIC, MDR E. coli ELZ4000; type: cell-based, Escherichia coli; conditions: Escherichia coli; E. coli ELZ4000, MDR clinical isolate; read-out: MIC ELZ4000
[12] = system: Neisseria meningitidis (N. meningitidis) 13090; test: Antibacterial activity, MIC, N. meningitidis 13090; type: cell-based; conditions: Neisseria meningitidis; N. meningitidis 13090; read-out: MIC 13090
[13] = system: Haemophilus influenzae (H. influenzae) 49247; test: Antibacterial activity, MIC, H. influenzae 49247; type: cell-based; conditions: Haemophilus influenzae; H. influenzae 49247; read-out: MIC 49247
In short: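 A microbroth dilution method gave the minimum inhibitory concentration for each compound against H. influenzae 49247, a Gram-negative bacterium. MIC means the smallest concentration of drug at which no macroscopically visible bacterial growth appears under the conditions of the test.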

[14] = system: quinolone resistant E. coli LZ3111; test: Antibacterial activity, MIC, quinolone resistant E. coli LZ3111; type: cell-based, Escherichia coli; conditions: Escherichia coli, read-out: MIC, LZ3111
From the text: as §1
Mutations in these regions are known to confer a high level resistance to the quinolone class of antibiotics.

[15] = resistant K. pneumoniae MMX1232, MDR clinical isolate
[16] = resistant A. baumannii MMX2240, MDR clinical isolate

Row | Compound | MIC [1, 15] | MIC [2] | MIC [3] | MIC [4, 16] | MIC [5] | MIC [6] | MIC [7] | MIC [8] | MIC [9] | MIC [10] | MIC [11] | MIC [12] | MIC [13] | MIC [14] | MIC [1] | MIC [4]
1 | CCc1c(-c2ccc(N3C[C@H]4CCN[C@H]4C3)cc2)[nH]c(=O)c(C(=O)O)c1O.Cl [Cpd 246, 5-ethyl-6-{4-[(3aR,6aR)-hexahydropyrrolo[3,4-b]pyrrol-5(1H)-yl]phenyl}-4-hydroxy-2-oxo-1,2-dihydropyridine-3-carboxylic acid hydrochloride] | 12.5 to 150 µg/mL | 1 to 3.5 µg/mL | 3.5 to 12.5 µg/mL | 12.5 to 150 µg/mL | 12.5 to 150 µg/mL | 12.5 to 150 µg/mL | 1 to 3.5 µg/mL | < 1 µg/mL | 12.5 to 150 µg/mL | 3.5 to 12.5 µg/mL | 12.5 to 150 µg/mL | 1 to 3.5 µg/mL | 1 to 3.5 µg/mL | – | – | –
2 | CCc1c(-c2ccc(N3CCC(CNC)C3)cc2)[nH]c(=O)c(C(=O)O)c1O.Cl (stereo not drawn) [Cpd 254, 5-ethyl-4-hydroxy-6-(4-{3-[(methylamino)methyl]pyrrolidin-1-yl}phenyl)-2-oxo-1,2-dihydropyridine-3-carboxylic acid hydrochloride] | 12.5 to 150 µg/mL | 1 to 3.5 µg/mL | 3.5 to 12.5 µg/mL | 12.5 to 150 µg/mL | 3.5 to 12.5 µg/mL | 12.5 to 150 µg/mL | 3.5 to 12.5 µg/mL | < 1 µg/mL | 3.5 to 12.5 µg/mL | 12.5 to 150 µg/mL | 12.5 to 150 µg/mL | 1 to 3.5 µg/mL | 12.5 to 150 µg/mL | 3.5 to 12.5 µg/mL | – | –
3 | CCc1c(-c2ccc(C3CCN(CC)CC3)cc2)[nH]c(=O)c(C(=O)O)c1O [Cpd 339, 5-ethyl-6-(4-(1-ethylpiperidin-4-yl)phenyl)-4-hydroxy-2-oxo-1,2-dihydropyridine-3-carboxylic acid] | 12.5 to 150 µg/mL (≈ 33.7 to 405 µM) | 12.5 to 150 µg/mL (≈ 33.7 to 405 µM) | – | 12.5 to 150 µg/mL (≈ 33.7 to 405 µM) | 12.5 to 150 µg/mL (≈ 33.7 to 405 µM) | 12.5 to 150 µg/mL (≈ 33.7 to 405 µM) | 12.5 to 150 µg/mL (≈ 33.7 to 405 µM) | 3.5 to 12.5 µg/mL (≈ 9.45 to 33.7 µM) | 12.5 to 150 µg/mL (≈ 33.7 to 405 µM) | – | – | – | – | 12.5 to 150 µg/mL (≈ 33.7 to 405 µM) | – | –
4 | CCc1c(-c2ccc(C3=CCNCC3)cc2)[nH]c(=O)c(C(=O)O)c1O [Cpd 340, 5-ethyl-4-hydroxy-2-oxo-6-(4-(1,2,3,6-tetrahydropyridin-4-yl)phenyl)-1,2-dihydropyridine-3-carboxylic acid] | – | 12.5 to 150 µg/mL (≈ 36.7 to 441 µM) | – | – | 12.5 to 150 µg/mL (≈ 36.7 to 441 µM) | 12.5 to 150 µg/mL (≈ 36.7 to 441 µM) | 3.5 to 12.5 µg/mL (≈ 10.3 to 36.7 µM) | 3.5 to 12.5 µg/mL (≈ 10.3 to 36.7 µM) | 12.5 to 150 µg/mL (≈ 36.7 to 441 µM) | – | – | – | – | 12.5 to 150 µg/mL (≈ 36.7 to 441 µM) | 12.5 to 150 µg/mL (≈ 36.7 to 441 µM) | 12.5 to 150 µg/mL (≈ 36.7 to 441 µM)
5 | CCc1c(-c2ccc(C3=CCN(CC)CC3)cc2)[nH]c(=O)c(C(=O)O)c1O [Cpd 341, 5-ethyl-6-(4-(1-ethyl-1,2,3,6-tetrahydropyridin-4-yl)phenyl)-4-hydroxy-2-oxo-1,2-dihydropyridine-3-carboxylic acid] | – | 12.5 to 150 µg/mL (≈ 33.9 to 407 µM) | – | – | 12.5 to 150 µg/mL (≈ 33.9 to 407 µM) | 12.5 to 150 µg/mL (≈ 33.9 to 407 µM) | 3.5 to 12.5 µg/mL (≈ 9.5 to 33.9 µM) | 1 to 3.5 µg/mL (≈ 2.71 to 9.5 µM) | 12.5 to 150 µg/mL (≈ 33.9 to 407 µM) | – | – | – | – | 3.5 to 12.5 µg/mL (≈ 9.5 to 33.9 µM) | 12.5 to 150 µg/mL (≈ 33.9 to 407 µM) | 12.5 to 150 µg/mL (≈ 33.9 to 407 µM)
6 | CCc1c(-c2ccc(C3=CCN(C)CC3)cc2)[nH]c(=O)c(C(=O)O)c1O [Cpd 342, 5-ethyl-4-hydroxy-6-(4-(1-methyl-1,2,3,6-tetrahydropyridin-4-yl)phenyl)-2-oxo-1,2-dihydropyridine-3-carboxylic acid] | – | 3.5 to 12.5 µg/mL (≈ 9.88 to 35.3 µM) | – | – | 12.5 to 150 µg/mL (≈ 35.3 to 423 µM) | 12.5 to 150 µg/mL (≈ 35.3 to 423 µM) | 3.5 to 12.5 µg/mL (≈ 9.88 to 35.3 µM) | 1 to 3.5 µg/mL (≈ 2.82 to 9.88 µM) | 12.5 to 150 µg/mL (≈ 35.3 to 423 µM) | – | – | – | – | 3.5 to 12.5 µg/mL (≈ 9.88 to 35.3 µM) | 12.5 to 150 µg/mL (≈ 35.3 to 423 µM) | 12.5 to 150 µg/mL (≈ 35.3 to 423 µM)
7 | CCc1c(-c2ccc(CCN(C)C)cc2)[nH]c(=O)c(C(=O)O)c1O [Cpd 343, 6-(4-(2-(dimethylamino)ethyl)phenyl)-5-ethyl-4-hydroxy-2-oxo-1,2-dihydropyridine-3-carboxylic acid] | 12.5 to 150 µg/mL (≈ 37.8 to 454 µM) | 12.5 to 150 µg/mL (≈ 37.8 to 454 µM) | – | 12.5 to 150 µg/mL (≈ 37.8 to 454 µM) | 12.5 to 150 µg/mL (≈ 37.8 to 454 µM) | 12.5 to 150 µg/mL (≈ 37.8 to 454 µM) | 12.5 to 150 µg/mL (≈ 37.8 to 454 µM) | 3.5 to 12.5 µg/mL (≈ 10.6 to 37.8 µM) | 12.5 to 150 µg/mL (≈ 37.8 to 454 µM) | – | – | – | – | 12.5 to 150 µg/mL (≈ 37.8 to 454 µM) | – | –
